In data set [1] the test system is Mus musculus. The data set can be described thus: Anti-inflammatory activity against MRL/Ipr Systemic lupus erythematosus mouse model assessed as inhibition of proteinuria at 1 mg/kg, po administered for 8 weeks and measured 24 hrs post final dose relative to control. The data set is classed as functional. Also on record: scale not given: the % may be the effect or the level left. The following applies: time 1368 hrs.

Data set [2] deals with Mus musculus. The data set can be described thus: Anti-inflammatory activity against MRL/Ipr Systemic lupus erythematosus mouse model assessed as inhibition of anti-Sm/RNP Ab titer at 5 mg/kg, po administered for 8 weeks and measured 24 hrs post final dose relative to control. The following applies: time 1368 hrs. Format: functional. Further details: scale not given: the % may be the effect or the level left.

The nature of data set [3]: In vivo antagonist activity at TRL7 in C57BL/6 mouse assessed as inhibition of gardiquimod stimulated IL-6 production at 0.05 mg/kg,po for 30 minutes and followed by gardiquimod addition measured after 90 mins by ELISA analysis relative to control. The note with it: time 120 min, 2 h. Further details: scale not given: the % may be the effect or the level left. The data set is classed as functional. A general note: An ELISA detects its analyte on a solid surface through an enzyme-linked reagent.

Data set [4] addresses T1, Toll-like receptor 9 (Mus musculus, UniProt Q9EQU3).
T1 sequence (Q9EQU3 whole entry): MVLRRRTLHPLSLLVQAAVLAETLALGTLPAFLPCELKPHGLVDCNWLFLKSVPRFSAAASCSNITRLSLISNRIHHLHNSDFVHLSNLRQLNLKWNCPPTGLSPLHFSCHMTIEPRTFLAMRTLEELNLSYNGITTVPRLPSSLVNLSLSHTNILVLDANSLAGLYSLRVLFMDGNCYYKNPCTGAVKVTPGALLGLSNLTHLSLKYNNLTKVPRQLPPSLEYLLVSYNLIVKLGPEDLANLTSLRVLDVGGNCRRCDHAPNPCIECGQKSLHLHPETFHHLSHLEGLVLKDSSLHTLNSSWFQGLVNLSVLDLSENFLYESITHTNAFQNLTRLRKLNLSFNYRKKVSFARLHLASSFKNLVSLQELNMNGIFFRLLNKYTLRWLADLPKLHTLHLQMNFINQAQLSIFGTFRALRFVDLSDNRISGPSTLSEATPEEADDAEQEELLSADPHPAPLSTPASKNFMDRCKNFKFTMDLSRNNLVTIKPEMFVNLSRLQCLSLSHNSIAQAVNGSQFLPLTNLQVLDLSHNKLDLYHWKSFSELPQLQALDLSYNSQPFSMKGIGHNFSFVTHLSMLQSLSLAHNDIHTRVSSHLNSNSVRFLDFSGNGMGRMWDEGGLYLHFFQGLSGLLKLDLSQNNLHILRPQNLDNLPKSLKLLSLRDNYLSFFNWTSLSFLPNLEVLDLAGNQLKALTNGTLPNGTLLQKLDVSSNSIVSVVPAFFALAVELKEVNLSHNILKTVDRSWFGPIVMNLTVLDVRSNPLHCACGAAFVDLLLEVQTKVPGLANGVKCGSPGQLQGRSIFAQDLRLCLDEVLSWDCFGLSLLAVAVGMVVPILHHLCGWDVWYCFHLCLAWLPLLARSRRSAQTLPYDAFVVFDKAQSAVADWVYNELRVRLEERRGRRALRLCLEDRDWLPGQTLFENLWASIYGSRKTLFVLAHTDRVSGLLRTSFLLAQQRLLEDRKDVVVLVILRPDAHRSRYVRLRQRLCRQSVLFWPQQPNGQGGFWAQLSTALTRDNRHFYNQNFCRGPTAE
The data set can be described thus: Antagonist activity at ODN-2216 stimulated TLR9 in mouse whole blood assessed as inhibition of IL-6 production by ELISA analysis. The data set is classed as tissue-based.

Data set [5] relates to Mus musculus. The data set can be described thus: Anti-inflammatory activity against MRL/Ipr Systemic lupus erythematosus mouse model assessed as inhibition of urinary NGAL at 1 mg/kg, po administered for 8 weeks and measured 24 hrs post final dose relative to control. Format: functional. Also on record: scale not given: the % may be the effect or the level left. The note with it: time 1368 hrs.

A short description of data set [6]: Toxicity in MRL/Ipr Systemic lupus erythematosus mouse model assessed as relative spleen weight at 0.1 mg/kg, po administered for 8 weeks and measured 24 hrs post final relative to control. The data set is classed as organism-based. The following applies: in vivo, 1368 h.
Data set [7] concerns the target T2, Toll-like receptor 7 (Homo sapiens, UniProt Q9NYK1).
T2 sequence (Q9NYK1 whole entry): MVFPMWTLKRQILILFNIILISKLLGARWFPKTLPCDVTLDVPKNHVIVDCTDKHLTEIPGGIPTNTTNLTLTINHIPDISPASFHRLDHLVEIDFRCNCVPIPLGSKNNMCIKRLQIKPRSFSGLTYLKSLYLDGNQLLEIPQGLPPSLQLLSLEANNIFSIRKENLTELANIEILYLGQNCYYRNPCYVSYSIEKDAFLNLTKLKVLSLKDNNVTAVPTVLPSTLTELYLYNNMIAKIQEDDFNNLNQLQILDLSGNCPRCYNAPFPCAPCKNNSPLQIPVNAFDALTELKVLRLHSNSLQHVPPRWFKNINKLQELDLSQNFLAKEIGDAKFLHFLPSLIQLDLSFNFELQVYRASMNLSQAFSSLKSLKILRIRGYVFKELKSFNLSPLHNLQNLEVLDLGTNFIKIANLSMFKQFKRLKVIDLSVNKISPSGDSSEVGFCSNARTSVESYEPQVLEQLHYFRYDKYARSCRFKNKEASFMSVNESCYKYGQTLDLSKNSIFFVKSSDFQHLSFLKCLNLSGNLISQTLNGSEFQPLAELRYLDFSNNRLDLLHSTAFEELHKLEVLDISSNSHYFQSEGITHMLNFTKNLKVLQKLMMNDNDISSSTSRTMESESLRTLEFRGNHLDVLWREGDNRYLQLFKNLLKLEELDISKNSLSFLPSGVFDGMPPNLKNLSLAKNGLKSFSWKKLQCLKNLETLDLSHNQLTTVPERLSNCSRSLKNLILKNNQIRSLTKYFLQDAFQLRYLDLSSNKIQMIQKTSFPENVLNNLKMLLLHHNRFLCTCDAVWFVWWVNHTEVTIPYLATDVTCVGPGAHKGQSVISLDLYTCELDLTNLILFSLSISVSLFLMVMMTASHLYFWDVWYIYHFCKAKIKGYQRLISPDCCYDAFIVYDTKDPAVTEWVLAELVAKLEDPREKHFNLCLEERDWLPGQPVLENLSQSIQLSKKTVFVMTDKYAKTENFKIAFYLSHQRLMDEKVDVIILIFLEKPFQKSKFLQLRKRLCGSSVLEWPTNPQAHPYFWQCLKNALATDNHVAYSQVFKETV
The data set can be described thus: Antagonist activity at gardiquimod stimulated TRL7 in human whole blood assessed as inhibition of IL-6 production by ELISA analysis. The data set is classed as tissue-based.

Experimental findings from ChEMBL document CHEMBL5131534, “Identification of 2-Pyridinylindole-Based Dual Antagonists of Toll-like Receptors 7 and 8 (TLR7/8)” (ACS Med Chem Lett, 2022) are described below.

One may read the IC50 as the point on the concentration scale where inhibition reaches its midpoint.

Turning to `Cc1cc(-c2[nH]c3ccc(C4CCNCC4)cc3c2C(C)C)cc(C)n1`, the Activity in data set [1] was determined as 92%; in data set [2], 74%; in data set [3], 66%; in data set [5], 69%; in data set [6], 28%. For the same compound, the half-maximal inhibitory concentration (IC50) in data set [4] was over 5000 nM; in data set [7] it was 1.4 nM.
